Experiment [1] deals with wildtype Wnt signaling cascade. The experiment is described as follows: HEK293 TOP assay (Super TopFlash luciferase reporter, Wnt-3a stimulated). The experiment is classed as cell-based. Conditions: HEK293 TOP reporter cells, Wnt3a at EC50, 16 hours. An excerpt:
7.1 Measurement of the Inhibitory Activity of Selected Compounds on the Wildtype Wnt Signaling Cascade: HEK293 TOP/FOP Assay
In order to discover and characterize small molecules which inhibit the wildtype Wnt pathway, a cellular reporter assay was employed. The corresponding assay cell was generated by transfection of the mammalian cell line HEK293 (ATCC, #CRL-1573) with the Super TopFlash vector (Morin, Science 275, 1997, 1787-1790; Molenaar et al., Cell 86 (3), 1996, 391-399). The HEK293 cell line is cultivated at 37° C. and 5% CO2 in DMEM (Life Technologies, #41965-039), supplemented with 2 mM glutamine, 20 mM HEPES, 1.4 mM pyruvate, 0.15% Na-bicarbonate and 10% foetal bovine serum (GIBCO, #10270). Stable transfectants were generated by selection with 300 μg/ml Hygromycin.
(§1) In preparation of the assay, the two cell lines were plated 24 h before beginning the test at 10000 cells per well in a 384 micro titre plate (MTP) in 30 μl growth medium. […] The recombinant human Wnt-3a was thereby applied between 2500 and 5 ng/ml in two-fold dilution steps.
(§2) Selective inhibitory activity for small molecules on the wildtype Wnt pathway was determined after parallel incubation of both (TOP and FOP) HEK293 reporter cell lines with a compound dilution series from 50 μM to 15 nM in steps of 3.16-fold dilutions in CAFTY buffer (130 mM sodium chloride, 5 mM potassium chloride, 20 mM HEPES, 1 mM magnesium chloride, 5 mM sodium bicarbonate, pH 7.4) containing 2 mM Ca^2+ and 0.01% BSA.
(§3) The compounds were thereby serially prediluted in 100% DMSO and thereafter 50 fold into the CAFTY compound dilution buffer (described above).
Background: Reporter assays use an easily measured gene product as a stand-in for the process of interest.

Experiment [2] has as its system HEK293 cells cotransfected with the FOP control vector. The experiment is described as follows: HEK293 FOP assay (control reporter with non-functional TCF elements). The experiment is classed as cell-based. To be noted: 16 hours. The method, then:
In a parallel approach, HEK293 cells were cotransfected with the FOP control vector and pcDNA3. The FOP vector is identical to the TOP construct, but it contains instead of functional TCF elements a randomized, non-functional sequence. For this transfection a stable transfected cell line was generated as well, based on selection with Geneticin (1 mg/ml).
as §1, §2, §3

Where only a bound is given, the exact number is not on record here.

In the case of `CNC(=O)c1[nH]cnc1C(=O)N[C@H]1CC[C@]2(CC1)CC(O)N(c1ccc(F)cc1Cl)C2=O` (mixture of isomers) [Example 307, N^4-[(trans)-2-(2-chloro-4-fluorophenyl)-3-hydroxy-1-oxo-2-azaspiro[4.5]dec-8-yl]-N^5-methyl-1H-imidazole-4,5-dicarboxamide (mixture of isomers at C3)], the IC50 – broadly, the concentration that inhibits the measured activity by half – in experiment [1] (Homo sapiens, HEK293, 16 h) is 30 nM; in experiment [2] (Homo sapiens) it was at least 50000 nM.
`CC1CC2(CCC(NC(=O)c3cnn4cccnc34)CC2)C(=O)N1c1ccc(F)cc1Cl` (single isomer, unassigned; enantiomer 1) [Example 356, N-[(trans)-2-(2-chloro-4-fluorophenyl)-3-methyl-1-oxo-2-azaspiro[4.5]dec-8-yl]pyrazolo[1,5-a]pyrimidine-3-carboxamide (enantiomer 1)]: the IC50 in experiment [1] is 26 nM; in experiment [2], at least 50000 nM.
For `CC1CC2(CCC(NC(=O)c3cnn4cccnc34)CC2)C(=O)N1c1ccc(F)cc1Cl` (single isomer, unassigned; enantiomer 2) [Example 357, N-[(trans)-2-(2-chloro-4-fluorophenyl)-3-methyl-1-oxo-2-azaspiro[4.5]dec-8-yl]pyrazolo[1,5-a]pyrimidine-3-carboxamide (enantiomer 2)], in that order: 5.3 nM and at least 50000 nM.
Regarding `CNC(=O)c1[nH]cnc1C(=O)N[C@H]1CC[C@H](C(=O)Nc2ccc(F)cc2Cl)CC1(F)F` (stereo in doubt) [Example 34, N^4-{(trans)-4-[(2-chloro-4-fluorophenyl)carbamoyl]-2,2-difluorocyclohexyl}-N^5-methyl-1H-imidazole-4,5-dicarboxamide], the IC50 in experiment [1] (Homo sapiens, HEK293, 16 h) was 210 nM; in experiment [2] (Homo sapiens) it was at least 50000 nM.
The corresponding values for `CNC(=O)c1[nH]cnc1C(=O)NC1CCC(C(=O)Nc2ccc(F)cc2Cl)CC1C` (centres unmarked) [Example 38, N^4-{4-[(2-chloro-4-fluorophenyl)carbamoyl]-2-methylcyclohexyl}-N^5-methyl-1H-imidazole-4,5-dicarboxamide] are 440 nM and at least 50000 nM.
As for `CNC(=O)c1[nH]cnc1C(=O)NC1CCC(C(=O)Nc2ccc(F)cc2Cl)CC1C` (centres unmarked) [Example 40, N^4-{4-[(2-chloro-4-fluorophenyl)carbamoyl]-2-methylcyclohexyl}-N^5-methyl-1H-imidazole-4,5-dicarboxamide], the IC50 is 460 nM in experiment [1] and at least 50000 nM in experiment [2].
For `O=C(N[C@H]1CC[C@H](C(=O)Nc2c(F)cc(F)cc2Cl)CC1)c1cnn2cccnc12` [Example 131, N-{trans-4-[(2-chloro-4,6-difluorophenyl)carbamoyl]cyclohexyl}pyrazolo[1,5-a]pyrimidine-3-carboxamide], the IC50 in experiment [1] (Homo sapiens, HEK293, 16 h) was 140 nM; in experiment [2] (Homo sapiens), at least 50000 nM.
For `CNC(=O)c1nc[nH]c1C(=O)N[C@H]1CC[C@H](C(=O)Nc2snc(C)c2Cl)CC1` [Example 175, N^5-{trans-4-[(4-chloro-3-methyl-1,2-thiazol-5-yl)carbamoyl]cyclohexyl}-N^4-methyl-1H-imidazole-4,5-dicarboxamide], in that order: 1600 nM and 1300 nM.
Consider `CN1CCN(c2ccn3ncc(C(=O)N[C@H]4CC[C@@]5(CCN(c6ccc(F)cc6Cl)C5=O)CC4)c3n2)CC1` [Example 229, N-[(trans)-2-(2-chloro-4-fluorophenyl)-1-oxo-2-azaspiro[4.5]dec-8-yl]-5-(4-methylpiperazin-1-yl)pyrazolo[1,5-a]pyrimidine-3-carboxamide], for which the IC50 in experiment [1] (Homo sapiens, HEK293, 16 h) is 57 nM; in experiment [2] (Homo sapiens), at least 50000 nM.
In the case of `Cc1cc(O)n2ncc(C(=O)N[C@H]3CC[C@@]4(CCN(c5ccc(F)cc5Cl)C4=O)CC3)c2n1` [Example 364, N-[(trans)-2-(2-chloro-4-fluorophenyl)-1-oxo-2-azaspiro[4.5]dec-8-yl]-7-hydroxy-5-methylpyrazolo[1,5-a]pyrimidine-3-carboxamide], the IC50 in experiment [1] (Homo sapiens, HEK293, 16 h) is 170 nM; in experiment [2] (Homo sapiens), at least 50000 nM.

The values above are taken from patent US20180148418A1, “AMIDO-SUBSTITUTED CYCLOHEXANE DERIVATIVES” (Bayer Pharma Aktiengesellschaft, priority 2015, published 2018).
